In patent US8436039B2, “Inhibitors of the ATB(0,+) transporter and uses thereof” (Georgia Health Sciences University Research Institute, Inc., priority 2008, dated 2013):

What was measured:
ATB^0,+ in MCF7 cells = target: T1, ATB^0,+ in MCF7 cells (Homo sapiens, UniProt Q9UN76); assay: D-serine uptake in MCF7 cells (constitutively expressed ATB^0,+); type: cell-based; conditions: for IC50: D-serine 5 μM, NaCl, read-out: IC50 for inhibition of D-serine uptake
T1 construct: host or cells: MCF7
T1 sequence (Q9UN76 1-642): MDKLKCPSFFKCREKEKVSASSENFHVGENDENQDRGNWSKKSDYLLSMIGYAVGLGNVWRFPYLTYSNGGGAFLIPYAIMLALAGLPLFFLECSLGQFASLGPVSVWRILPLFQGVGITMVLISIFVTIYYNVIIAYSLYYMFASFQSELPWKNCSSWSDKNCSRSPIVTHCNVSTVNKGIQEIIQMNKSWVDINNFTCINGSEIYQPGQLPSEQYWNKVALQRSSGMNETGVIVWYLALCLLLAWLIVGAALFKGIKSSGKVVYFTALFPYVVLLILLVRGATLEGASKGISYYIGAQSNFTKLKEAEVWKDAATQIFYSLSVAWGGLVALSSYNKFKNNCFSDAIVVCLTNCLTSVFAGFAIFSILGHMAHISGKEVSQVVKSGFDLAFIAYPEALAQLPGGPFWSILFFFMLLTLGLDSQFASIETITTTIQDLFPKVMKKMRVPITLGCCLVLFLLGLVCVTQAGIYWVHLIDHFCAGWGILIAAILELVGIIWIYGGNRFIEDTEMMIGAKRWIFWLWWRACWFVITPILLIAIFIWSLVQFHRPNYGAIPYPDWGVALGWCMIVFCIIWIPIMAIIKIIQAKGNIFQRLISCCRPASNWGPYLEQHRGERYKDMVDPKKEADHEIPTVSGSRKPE
Procedure: Cells were seeded and grown in 24-well culture plates to confluency and used for uptake measurements. Radiolabelled glycine or D-serine was used as the substrate to determine the transport function of ATB^0,+. Uptake measurements were routinely made in an NaCl-containing buffer (25 mM Hepes/Tris buffer, pH 7.4, 140 mM NaCl, 5.4 mM KCl, 1.8 mM CaCl2, 0.8 mM MgSO4 and 5 mM glucose). Ion dependence of the transport process was evaluated by studying the uptake activity in buffers of varying compositions. NaCl in the uptake buffer was replaced iso-osmotically with NMDG (N-methyl-D-glucamine) chloride to prepare an Na^+-free buffer, and with sodium gluconate to prepare a Cl^−-free buffer. Linear uptake rates were determined by employing a 10 min incubation period, based on time course experiments. Na^+-activation kinetics was analysed by studying the uptake rates in the presence of varying concentrations of Na^+ (2.5-140 mM) in the uptake buffer with Cl^− concentration kept constant at 140 mM. This was done by replacing NaCl with appropriate concentrations of NMDG. Cl^−-activation kinetics was analysed by studying the uptake rates in the presence of varying concentrations of Cl^− (2.5-100 mM) in the uptake buffer with Na^+ concentration kept constant at 140 mM. This was done by replacing NaCl with appropriate concentrations of sodium gluconate. Uptake data for Na^+- and Cl^−-activation kinetics were analysed using the Hill equation, and values for K0.5 for Na^+ and Cl^− and for the Hill coefficient (h) were determined by linear and non-linear regression methods. A commercially available software program (Sigma Plot, version 6.0; SPSS) was used for this purpose. Substrate specificity of the uptake process was evaluated by monitoring the effects of unlabelled amino acids (5 mM) on the uptake of radiolabelled glycine or D-serine (5 μM: radiolabelled substrate, 0.05 μM; unlabelled substrate, 4.95 μM).
The kinetic nature of inhibition of D-serine uptake by α-methyl-DL-tryptophan was investigated in MCF7 cells by monitoring the uptake at increasing concentrations of D-serine (range, 50-2000 μM) in the absence and presence of 100 μM α-methyl-DL-tryptophan. The kinetic parameters were calculated by linear regression (Eadie-Hofstee plots) and the values were confirmed by non-linear regression.
We employed a similar experimental strategy to detect specifically the transport function of ATB^0,+ in the remaining seven cell lines. […] We also investigated the effect of α-methyl-DL-tryptophan on D-serine uptake in MCF7 cells.

human LAT1/4F2hc = human LAT1/4F2hc (Homo sapiens, UniProt Q01650); assay: Inhibition of LAT1 transport function: L-valine uptake in HRPE cells co-expressing human LAT1 and human 4F2hc; type: cell-based; conditions: for effect on cDNA-induced valine uptake: 1 mM, L-[14C]valine 0.75 μM, 5 min
[1] = α-methyl-DL-tryptophan 100 μM, MCF7 cells

human LAT1/4F2hc, sequence (Q01650 whole entry): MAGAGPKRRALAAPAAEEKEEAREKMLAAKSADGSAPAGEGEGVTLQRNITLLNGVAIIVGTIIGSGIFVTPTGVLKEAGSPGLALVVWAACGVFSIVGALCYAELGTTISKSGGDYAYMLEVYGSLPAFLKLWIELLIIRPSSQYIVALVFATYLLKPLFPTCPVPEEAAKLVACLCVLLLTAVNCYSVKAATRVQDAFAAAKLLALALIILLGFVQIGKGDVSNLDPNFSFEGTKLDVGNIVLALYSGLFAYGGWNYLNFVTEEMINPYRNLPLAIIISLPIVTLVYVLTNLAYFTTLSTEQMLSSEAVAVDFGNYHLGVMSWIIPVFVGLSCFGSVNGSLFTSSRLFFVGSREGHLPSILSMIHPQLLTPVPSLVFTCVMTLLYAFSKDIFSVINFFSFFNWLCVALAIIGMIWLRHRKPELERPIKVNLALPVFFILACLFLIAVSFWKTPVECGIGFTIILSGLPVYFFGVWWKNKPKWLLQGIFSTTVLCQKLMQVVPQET
human LAT1/4F2hc, sequence (P08195 102-630 partner): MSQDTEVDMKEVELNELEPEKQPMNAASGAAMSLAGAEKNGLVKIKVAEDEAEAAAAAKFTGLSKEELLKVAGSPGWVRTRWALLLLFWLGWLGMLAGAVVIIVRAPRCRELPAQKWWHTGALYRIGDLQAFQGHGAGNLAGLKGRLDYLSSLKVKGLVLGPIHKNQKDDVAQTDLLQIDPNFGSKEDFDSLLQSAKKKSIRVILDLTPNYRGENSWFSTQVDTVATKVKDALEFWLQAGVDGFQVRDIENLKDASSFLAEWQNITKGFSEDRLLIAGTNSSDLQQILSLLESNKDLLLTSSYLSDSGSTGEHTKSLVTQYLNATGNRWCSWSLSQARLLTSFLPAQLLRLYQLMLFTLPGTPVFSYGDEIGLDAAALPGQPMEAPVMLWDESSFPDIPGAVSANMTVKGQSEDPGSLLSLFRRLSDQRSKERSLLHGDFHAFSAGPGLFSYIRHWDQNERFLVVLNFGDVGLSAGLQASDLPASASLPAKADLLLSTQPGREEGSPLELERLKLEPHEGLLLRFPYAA

Question: What does the source list for `Cn1cc(CC(N)C(=O)O)c2ccccc21` (racemic) [1-methyl-DL-tryptophan]?
Answer: IC50 (ATB^0,+ in MCF7 cells; MCF7 cells): 221 ± 40 µM; effect on cDNA-induced valine uptake (human LAT1/4F2hc): abolished completely

Question: What does the source list for `CC(N)(Cc1c[nH]c2ccccc12)C(=O)O` (racemic) [α-methyl-DL-tryptophan]?
Answer: kinetic nature of inhibition of D-serine uptake (ATB^0,+ in MCF7 cells; 100 μM blocker, D-serine 50-2000 μM, Eadie-Hofstee): competitive; Kt for D-serine uptake in the presence of blocker (ATB^0,+ in MCF7 cells; [1]): 869 ± 52 µM; Vmax for D-serine uptake in the presence of blocker (ATB^0,+ in MCF7 cells; [1]): 33.3±1.4 nmol/mg of protein per 15 min; type of inhibition of LAT1 (human LAT1/4F2hc): competitive inhibitor; effect on cDNA-induced valine uptake (human LAT1/4F2hc): abolished completely

Question: With `Cn1cc(C[C@@H](N)C(=O)O)c2ccccc21` [1-methyl-D-tryptophan] as the compound, how does the IC50 (ATB^0,+ in MCF7 cells; MCF7 cells) read?
Answer: 1580 ± 180 µM

Question: For `Cn1cc(C[C@H](N)C(=O)O)c2ccccc21` [1-methyl-L-tryptophan], which IC50 (ATB^0,+ in MCF7 cells; MCF7 cells) is on record?
Answer: 86 ± 11 µM

Question: What about the “IC50 of L-isomer lower compared with D-isomer” value (ATB^0,+ in MCF7 cells; D-serine uptake, MCF7 cells) of the same compound?
Answer: at least 15 fold

Question: And the “effect on cDNA-induced valine uptake” value (human LAT1/4F2hc)?
Answer: abolished completely
